# Assay results reported in US20220313686A1, “PHARMACEUTICAL COMPOSITIONS COMPRISING A COMBINATION OF OPIOID ANTAGONISTS” (YISSUM RESEARCH DEVELOPMENT COMPANY OF THE HEBREW …, priority 2019, published 2022).
# Legend:
# μ-opioid receptor = μ-opioid receptor (Homo sapiens, UniProt P35372); conditions: cited from earlier work
# κ-receptor [1] = target: T1, κ-receptor (Homo sapiens, UniProt P41145); conditions: in vitro; cited from earlier work
# δ-receptor [2] = target: T2, δ-receptor (Homo sapiens, UniProt P41143); conditions: in vitro; cited from earlier work
# μ-receptor = μ-receptor (Homo sapiens, UniProt P35372); conditions: in vitro; cited from earlier work
# κ-receptor [3] = target: T1, κ-receptor; conditions: in vitro; cited from earlier work; remark: listed apart in the source
# δ-receptor [4] = target: T2, δ-receptor; conditions: in vitro; cited from earlier work; remark: listed apart in the source
# [5] = Passive loading of naloxone and naltrexone into MLV's liposomes; format: physicochemical
# opioid receptors [6] = conditions: in vivo; cited from earlier work
# opioid receptors [7] = conditions: metabolite of naltrexone; cited from earlier work
# T2 sequence (P41143 whole entry): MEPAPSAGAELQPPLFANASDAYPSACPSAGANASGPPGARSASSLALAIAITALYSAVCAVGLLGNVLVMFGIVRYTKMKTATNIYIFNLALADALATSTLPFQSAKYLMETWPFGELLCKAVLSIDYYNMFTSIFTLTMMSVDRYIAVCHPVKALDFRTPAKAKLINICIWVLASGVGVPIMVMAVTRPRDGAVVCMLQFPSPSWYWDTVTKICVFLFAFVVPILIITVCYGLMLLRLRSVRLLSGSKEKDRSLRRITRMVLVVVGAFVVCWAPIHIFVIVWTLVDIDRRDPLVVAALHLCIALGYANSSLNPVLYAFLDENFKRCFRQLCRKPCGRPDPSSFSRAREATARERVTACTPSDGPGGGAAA
# T1 sequence (P41145 whole entry): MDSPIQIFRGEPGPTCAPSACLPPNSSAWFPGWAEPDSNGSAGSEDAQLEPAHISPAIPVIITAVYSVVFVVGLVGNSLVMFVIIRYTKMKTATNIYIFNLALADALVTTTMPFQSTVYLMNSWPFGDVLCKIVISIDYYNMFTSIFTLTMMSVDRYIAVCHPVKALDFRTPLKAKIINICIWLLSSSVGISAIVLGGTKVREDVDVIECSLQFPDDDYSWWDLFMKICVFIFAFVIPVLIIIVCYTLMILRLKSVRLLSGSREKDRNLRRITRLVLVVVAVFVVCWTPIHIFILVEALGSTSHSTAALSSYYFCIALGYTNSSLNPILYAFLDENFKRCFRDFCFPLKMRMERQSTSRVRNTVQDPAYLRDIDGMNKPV
# μ-opioid receptor, sequence (P35372 whole entry, species assumed): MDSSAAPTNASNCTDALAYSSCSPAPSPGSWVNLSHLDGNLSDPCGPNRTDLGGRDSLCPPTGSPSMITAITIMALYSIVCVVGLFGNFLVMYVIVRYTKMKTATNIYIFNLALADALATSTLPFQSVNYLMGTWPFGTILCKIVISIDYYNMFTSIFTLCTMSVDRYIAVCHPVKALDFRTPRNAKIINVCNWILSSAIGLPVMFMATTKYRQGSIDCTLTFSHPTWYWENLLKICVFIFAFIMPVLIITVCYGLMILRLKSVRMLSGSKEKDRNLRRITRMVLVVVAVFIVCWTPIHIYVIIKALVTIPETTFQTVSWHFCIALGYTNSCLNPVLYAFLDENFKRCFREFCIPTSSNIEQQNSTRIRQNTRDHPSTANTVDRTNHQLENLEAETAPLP
# μ-receptor, sequence (P35372 whole entry, species assumed): as above
compound,measurement,setting,value
"NC(=O)c1ccc2c(c1O)[C@]13CCN(CC4CC4)[C@H](C2)[C@]1(O)CCC(=O)C3 [Samidorphan, 3-carboxamido-4-hydroxynaltrexone]",greater affinity at mu-opioid receptor compared to naltrexone,μ-opioid receptor,five
same,affinity at μ-receptor,μ-opioid receptor; in vitro,high affinity
same,affinity at κ-receptor,κ-receptor [1],high affinity
same,affinity at δ-receptor,δ-receptor [2],high affinity
same,action at μ-receptor,μ-receptor,antagonist
same,action at κ-receptor,κ-receptor [3],partial agonist
same,action at δ-receptor,δ-receptor [4],partial agonist
"O=C1CC[C@@]2(O)[C@H]3Cc4ccc(O)c5c4[C@@]2(CCN3CC2CC2)[C@H]1O5 [Naltrexone, 17-(cyclopropylmethyl)-4,5α-epoxy-3,14-dihydroxymorphinan-6-one]",Liposomal naltrexone conc.,[5],8.1 mg/mL
same,duration of effect,opioid receptors [6],last about a day
"C=CCN1CC[C@]23c4c5ccc(O)c4O[C@H]2C(=O)CC[C@@]3(O)[C@H]1C5 [Naloxone, 17-allyl-4,5α-epoxy-3,14-dihydroxymorphinan-6-one]",Liposomal naloxone conc.,[5],6.8 mg/mL
Oc1ccc2c3c1O[C@H]1[C@H](O)CC[C@@]4(O)[C@@H](C2)N(CC2CC2)CC[C@]314 [60-naltrexol],antagonist activity,opioid receptors [7],active antagonist
